Assay results reported in patent US20040009921A1, “Methods and compositions for the treatment of cancer” (Allergan, Inc., priority 2002, published 2004).

Experiments:
[1] = system: β-catenin-driven gene transcription in APC-negative colorectal cancer cell line SW480; assay: Topflash reporter gene assay in SW480 cells; assay type: cell-based
Description: Cultured cells were transfected with 100 ng of reporter gene Topflash® together with expression vectors indicated under each graph. […] (A) Data from HEK293 cells co-transfected with wild type or mutant β-catenin (200 ng) and RXRα (20 ng). (B) CAT, a stable cell line that overexpresses β-catenin (left panel). RBC, a stable cell line that overexpresses both RXRα and β-catenin. (C) SW480, a colorectal cancer cell line, was transfected with 100 ng of Topflash®. The amount of RXRα cotransfected was indicated below the X axis. Reporter activity on the Y axis is expressed as either Luciferase Unit or percentage of activity in cells transfected with Topflash® alone.
For transfection of the HEK293 cell line, cells were seeded at a density of 50,000 cells per well in 24-well plates coated with poly-D-Lysine (Becton Dickinson). […] Harvested cells were lysed, and luciferase activity was measured as previously described (de Wet, J. R., Wood, K. V., DeLuca, M., Helinski, D. R., Subramani, S. (1987) Mol. Cell. Biol. 7, 725-737). In cells transfected with the LacZ control gene, β-galactosidase activity was measured by standard colorimetric assays. Renilla reniformis […] activity was determined using the Dual-Luciferase Reporter 100 Assay System (Promega Corporation, 2800 Woods Hollow Road, Madison Wis. USA 53711). […]

β-catenin mRNA = assay: Northern blotting of β-catenin mRNA in RBC cells; assay type: cell-based, human; settings: RBC cells treated overnight (17 hours)
Description: (A) Western blotting analysis of HEK293 cells transfected with a combination of expression vectors for LacZ (2 μg), V5-tagged β-catenin(4 μg), and Flag-tagged RXRα (2 μg) as indicated below the gels. […] RXRα protein was measured using an HRP-conjugated mouse monoclonal antibody against the Flag tag. (B) Western blotting analysis of stable cell line RBC that overexpresses both β-catenin and RXRα. […] (C) Western blotting analysis of stable cell line CAT that overexpresses only β-catenin. […] Endogenous and overexpressed β-catenin were detected using a rabbit polyclonal antibody as indicated by “Total” whereas overexpressed β-catenin was analyzed using a mouse monoclonal antibody against the V5 tag. Endogenous and overexpressed RXRα were detected by a rabbit polyclonal antibody against RXRα, whereas overexpressed RXRα was determined by an HRP-conjugated mouse monoclonal antibody against the Flag tag. (D) Western blotting analysis of HEK293 cells transfected with a fixed amount of β-catenin (4 μg) plus an increasing amount of RXRα as indicated at the top. […] (E) Western blotting analysis of HEK293, CV-1, and Hela cells transfected with 2 μg of RXRα and 4 μg of wild type or mutant β-catenin. α. […] (F) Northern blotting analysis of RBC cells using β-catenin as a probe.

CC(/C=C/[C@@H]1C[C@]1(C)c1ccc2c(c1)C(C)(C)CCC2(C)C)=C\C(=O)O [AGN 4204]
reporter gene activity ([1]; SW480, low levels of endogenous RXRs only): not sufficient to produce an effect | reporter gene activity ([1]; SW480 cotransfected with RXRα, 0.1 μM, 17 hours): a decrease in reporter gene activity | β-catenin mRNA level (β-catenin mRNA): no effects
